According to US20170016062A1, “SEQUENCING METHODS AND KITS” (NEW YORK UNIVERSITY, priority 2015, published 2017):

Columns and labels:
E. coli = assay: Fluctuation assay of mutation rate with sub-inhibitory antibiotic doses; type: cell-based, Escherichia coli
Text: The effect of sub-inhibitory doses of antibiotics of different classes on mutation rate was investigated using both MDS and detailed fluctuation assays as performed in Garibyan, L. et al. (2003). DNA Repair. 2(5):593-608; and Lang, G. I.; et al. (2008). Genetics 178(1):67-82.

[1] = tested on: MG1655 E. coli (rpoB and mrcA regions of interest); assay: Maximum-Depth Sequencing (MDS) of mutation rates in E. coli grown with sub-inhibitory antibiotic doses; type: cell-based, Escherichia coli; details: for rate of transition mutations in rpoB: wild-type MG1655, aerobic, 1 μL/mL ampicillin or 15 ng/mL norfloxacin
Procedure: E. coli were streaked onto Luria-Bertani (LB) Agar from freezer stocks and grown at 30° C. for 24 hours. According to plating and colony-forming unit (CFU) counting, the average number of cells in such colonies is 3×10^8 (thus the number of generations is […]. Bacteria from a single colony were used to inoculate a small liquid culture (1 ml LB broth in a round-bottom tube). For the purposes of generation counting, it is assumed that after the transition to growing in liquid, growth occurs for only ˜3 generations, since the number of bacteria in the colony is roughly equal to the carrying capacity of the broth. The culture was grown for 12 hours on a 37° C. shaker.
4 μL (˜10^7 bacteria) were transferred to a fresh 100 mL LB liquid culture (in a 250 mL Erlenmeyer flask). Liquid cultures were grown for 24 hours on a 37° C. shaker, to a density of 2.5×10^9 bacteria according to cell counts (for a total of 2.5×10^11 bacteria). This process was performed 9 times. The average number of generations a bacterium would have grown in each liquid culture is
Four biological replicates of each condition were grown. All liquid cultures, including the small founding culture, had the possible addition of 1 μL/mL ampicillin or 15 ng/mL norfloxacin. […] The fact that most of the “interrelatedness” between bacteria sampled at the end of the culture is important for the way mutation rate is calculated.
MG1655 E. coli were used as wild-type cells for all experiments. The tet-regulated mrcA strain MG1655(CmR::Ptet-mrcA SpR::tetR) was prepared according to Lutz, R.; Bujard, H. (1997) Independent and tight regulation of transcriptional units in Escherichia coli via the LacR/O and the TetR/O and AraC/I1-I2 regulatory elements. Nucleic Acids Research. 25(6):1203-10. […] PNAS 111(20):E2100-E2109, doi: 10.1073/pnas.1201876111. Mutant strains were induced with anhydrous tetracycline at 50 ng/ml. In the mutS knockout strain, MG1655 mutS was replaced with a kanamycin resistance cassette.
0. Restriction digest. a. Incubate 1 μg DNA in 50 μL 1× restriction enzyme buffer with the appropriate amount of restriction enzyme. For this study, 1 unit XmnI was used. Samples were incubated at 37° C. overnight. b. Deactivate restriction enzyme. For XmnI, samples were heated at 65° C. for 20 minutes. 1. 1 cycle PCR with adapter-barcode-primer a. Prepare 50 μL PCR reaction mix using adapter-barcode-primer and 12.5 μL of the sample above (250 ng DNA) b. PCR, 1 cycle: 98° C. 1 min, 60° C. 15 sec, 72° C. 1 min 2. Remove unused barcodes a. Immediately add 1 μL exonuclease I+5 μL buffer. b. Incubate at 37° C. for 1 hr, then 80° C. for 20 min c. Clean sample using PCR purification kit 3. Linear amplification using forward adapter amplifier primers a. Add cleaned DNA to fresh 50 μL reaction mix with forward adapter amplifier primer. b. PCR, 12 cycles: 98° C. 15 sec, 61° C. 15 sec, 72° C. 5 sec Note: The number of linear amplification cycles is limited by off-target amplification.
a. Add adapter-reverse-primer and reverse adapter amplifier primers. b. PCR, 15 cycles: 98° C. 15 sec, 61° C. 15 sec, 72° C. 5 sec 5. Purify with Ampure XP beads Optional: If using multiple samples with phased barcodes, combine DNA first in equimolar concentrations. For this study, quantification at this step was done using TapeStation. 6. Sequence. HiSeq Rapid Run, 150 bp, Paired-End.
After grouping by barcode, sequences were aligned using the forward and reverse [primer] sequences for mrcA and rpoB above. Samples were indexed according to phase. Consensus bases, including indels, are called only when all bases at a given position and barcode have 100% agreement.
Mutation rates in the assay are chosen to maximize the likelihood of recovering the mean mutant frequency for substitutions of a given type X->Y, which occur a Poisson process over a certain number of generations (in this case 113). […]

| Structure (SMILES) | transition substitution rate in rpoB, fluctuation assays (E. coli) | rate of >1 bp indel formation in both mrcA and rpoB ([1]; MDS, 15 ng/mL norfloxacin) | rate of transition mutations in rpoB ([1]; MDS) | mutation rate in cells overexpressing catalase ([1]; MDS, catalase overexpression mutant, lower basal rate) | transversions and indel formation in mrcA ([1]; MDS, mrcA) | transition rate, anaerobic conditions ([1]; cells grown in anaerobic conditions) |
| --- | --- | --- | --- | --- | --- | --- |
| CCn1cc(C(=O)O)c(=O)c2cc(F)c(N3CCNCC3)cc21 [norfloxacin] | this increase was only seen in cells that were grown to stationary phase | increased the rate of >1 bp indel formation in both mrcA and rpoB | increased the transition substitution rate in rpoB |  |  |  |
| CC1(C)S[C@@H]2[C@H](NC(=O)[C@H](N)c3ccccc3)C(=O)N2[C@H]1C(=O)O [ampicillin] |  |  | increase in the rate of transition mutations in rpoB | did not increase this lower rate | increased transversions and indel formation in mrcA | did not display an increase in transition rate |
